Experimental data from patent US20070009891A1, “Method for the isolation of expressed sequence tags in plants” (Metapontum Agrobios S.R.L., priority 2003, published 2007).

Assays:
hard corn seedlings = assay: Germination of hard corn seeds on MSO medium with 5-azaC: seedling phenotype; assay type: in vivo, Triticum durum; details: increasing concentration of 5-azaC (0.1-1 mM), aerial part and roots, 24° C. in the dark
Procedure: According to this method, the germination of the seeds is generally effected at a temperature ranging from 20 to 30° C., preferably from 22 to 26° C., in the dark and in the presence of concentrations of 5-azaC ranging from 0.1 mM to 2 mM, preferably from 0.3 mM to 0.5 mM.
Seeds of hard corn (Triticum durum) were sterilized in a solution of ethyl alcohol at 70% for 10 minutes under stirring. After eliminating the ethanol, the seeds were treated with a solution containing sodium hypochlorite (ACE) at 50% and Sodium Dodecyl Sulfate (SDS) at 0.5%, incubated at room temperature for 20 minutes under light stirring.
The seeds were subsequently washed with sterile H2O until the complete removal of the foam (about 7-8 times) and about 15-20 seeds were then placed in a Magenta Box each containing: 30 ml of MSO substrate (Sucrose 15 g/l, Muraschige-Sckug MS salts 2.2 g/l, Thiamin 0.2 mg/l, Myoinositol 50 mg/l, pH 5.6, agar 7 g/l), different concentrations of 5-azac (0.1 mM, 0.3 mM, 0.5 mM and 1 mM) and germinated in a chamber thermostat-regulated at 24° C. in the dark.
Seeds of hard corn left to germinate in MSO medium without 5-azac, were used as a control.

genomic DNA of hard corn = assay: Digestion of genomic DNA with restriction enzymes sensitive to methylation (CfoI, Hpa2, Msp1); design: species or system Triticum durum; details: seedlings about 21 days after germination; 5-azaC 0.1, 0.3, 0.5, 1 mM vs control
Procedure: Analyses for correlating the demethylation degree of the DNA with an increase in the undifferentiated gene expression were carried out by digestion of the genomic DNA with restriction enzymes sensitive to methylation, i.e. enzymes which preferentially act on hypomethylated DNA.
Analyses for correlating the demethylation degree of the DNA with an increase in the undifferentiated gene expression were carried out by digesting the genomic DNA with the following restriction enzymes: Cfol, Hpa2, Msp1 (Roche), sensitive to methylation.
For each reaction, about 5 μg of total DNA were digested with 20 units of enzyme in a final volume of 150 μl, for a night at 37° C. Each digestion product was precipitated and resuspended in 30μl of H2O. The digestion mixtures were separated on agarose gel at 0.8% and subjected to horizontal electrophoresis, for a night at […] (Sambrook, J. et al., 1989, Cold Spring Harbor Laboratory Press).

[1] = test system: undifferentiated gene expression in hard corn seedlings; assay: RT-PCR amplification and sequencing of genes expressed in different growth phases, from seedlings germinated with 5-AzaCytidine; design: species or system Triticum durum; details: MSO germination medium; 0.1-1 mM tested
Description: Furthermore, to confirm the efficiency of the method used, several genes were identified which are expressed in different growth phases of soft corn, of which a large number of sequences are available as this species of corn is more widely studied that hard corn. On the basis of the sequences deposited in data banks (National Center for Biotechnology Information, NCBI; European Bioinformatics Institute, EBI) pairs of oligonucleotides identified in the zones flanking the region encoding the nucleotidic sequence, were prepared, and subsequently used as primers for the amplification of the whole gene being tested. […]
The cDNA inserts were first amplified with the appropriate primers, cloned in the vector p-GEMT and introduced into the competent cells Escherichia coli (E. coli) DH5α. The recombinant clones, containing the expected fragments, were characterized by restriction analysis and their identity was confirmed by effecting sequence reactions carried out using the ABI Prism Big TaqDyeDeoxyTerminator Cycle Sequencing Kit (Applied Biosystems, Nr. 4303149) and analyzed with the automatic ABI 377 DNA Sequencer (Perkin Elmer ABI Prism). […]

- digestion of the genomic DNA by methylation-sensitive restriction enzymes (demethylation degree) (genomic DNA of hard corn): different digestion of the genomic DNA
Compound: Nc1ncn([C@@H]2O[C@H](CO)[C@@H](O)[C@H]2O)c(=O)n1 [5-azaC, 5-AzaCytidine]
- phenotype of the seedlings compared with control cultivated without 5-azaC (hard corn seedlings): slowing down in the development of the seedlings
- concentration in the germination medium giving the best results (totipotent gene expression) [1]: 0.3 to 0.5 mM
